Results: article PMC10733463, “Berberine-microbiota interplay: orchestrating gut health through modulation of the gut microbiota and metabolic transformation into bioactive metabolites” (Frontiers in Pharmacology, 2023)

Test system: caecal microbiota cultures
Experiment: 16S sequencing of total (DNA) and active (cDNA) community in caecal microbiota cultures, BBR vs Control
Assay type: cell-based, broiler chicken
Details: 48 h

For `COc1ccc2cc3[n+](cc2c1OC)CCc1cc2c(cc1-3)OCO2` [Berberine, Berberine chloride], the “L2FC BBRDNA vs ControlDNA” value was 0.44, the “L2FC BBRRNA vs BBRDNA” value was 3.40 and the “L2FC BBRRNA vs ControlRNA” value was 1.34. The “L2FC BBRRNA vs ControlRNA” value (OTU 40798 (Butyricicoccus), active (cDNA) community) was 0.45, the “L2FC BBRRNA vs BBRDNA” value (OTU 40798 (Butyricicoccus), active vs total community in BBR group) was -4.40 and the “L2FC BBRDNA vs ControlDNA” value (OTU 40798 (Butyricicoccus), total (DNA) community) was 0.83. The “L2FC BBRRNA vs ControlRNA” value (OTU 109633 (Eubacterium), active (cDNA) community) was 1.92, the “L2FC BBRRNA vs BBRDNA” value (OTU 109633 (Eubacterium), active vs total community in BBR group) was -0.64 and the “L2FC BBRDNA vs ControlDNA” value (OTU 109633 (Eubacterium), total (DNA) community) was 1.75. The “L2FC BBRRNA vs ControlRNA” value (OTU 129401 (Family_Ruminococcaceae), active (cDNA) community) was 1.00, the “L2FC BBRRNA vs BBRDNA” value (OTU 129401 (Family_Ruminococcaceae), active vs total community in BBR group) was 1.99 and the “L2FC BBRDNA vs ControlDNA” value (OTU 129401 (Family_Ruminococcaceae), total (DNA) community) was 0.84. For the same compound, the “L2FC BBRRNA vs ControlRNA” value (OTU 157573 (Alistipes), active (cDNA) community) was -0.29, the “L2FC BBRRNA vs BBRDNA” value (OTU 157573 (Alistipes), active vs total community in BBR group) was 1.91 and the “L2FC BBRDNA vs ControlDNA” value (OTU 157573 (Alistipes), total (DNA) community) was 0.19. For the same compound, the “L2FC BBRRNA vs ControlRNA” value (OTU 157772 (uncultured Ruminococcaceae), active (cDNA) community) was -0.27, the “L2FC BBRRNA vs BBRDNA” value (OTU 157772 (uncultured Ruminococcaceae), active vs total community in BBR group) was 1.68 and the “L2FC BBRDNA vs ControlDNA” value (OTU 157772 (uncultured Ruminococcaceae), total (DNA) community) was -0.36. For the same compound, the “L2FC BBRRNA vs ControlRNA” value (OTU 180099 (uncultured Lachnospiraceae), active (cDNA) community) was -0.96, the “L2FC BBRRNA vs BBRDNA” value (OTU 180099 (uncultured Lachnospiraceae), active vs total community in BBR group) was -0.59 and the “L2FC BBRDNA vs ControlDNA” value (OTU 180099 (uncultured Lachnospiraceae), total (DNA) community) was -1.55. For the same compound, the “L2FC BBRRNA vs ControlRNA” value (OTU 186881 (Anaerofilum), active (cDNA) community) was -1.11, the “L2FC BBRRNA vs BBRDNA” value (OTU 186881 (Anaerofilum), active vs total community in BBR group) was -0.59 and the “L2FC BBRDNA vs ControlDNA” value (OTU 186881 (Anaerofilum), total (DNA) community) was -1.53. The “L2FC BBRRNA vs ControlRNA” value (OTU 193240 (Butyricicoccus), active (cDNA) community) was -1.08, the “L2FC BBRRNA vs BBRDNA” value (OTU 193240 (Butyricicoccus), active vs total community in BBR group) was -1.42 and the “L2FC BBRDNA vs ControlDNA” value (OTU 193240 (Butyricicoccus), total (DNA) community) was -1.34. The “L2FC BBRRNA vs ControlRNA” value (OTU 196831 (Oscillibacter), active (cDNA) community) was 0.14, the “L2FC BBRRNA vs BBRDNA” value (OTU 196831 (Oscillibacter), active vs total community in BBR group) was 2.09 and the “L2FC BBRDNA vs ControlDNA” value (OTU 196831 (Oscillibacter), total (DNA) community) was 0.24. For the same compound, the “L2FC BBRRNA vs ControlRNA” value (OTU 199555 ([Ruminococcus] torques group), active (cDNA) community) was -1.39, the “L2FC BBRRNA vs BBRDNA” value (OTU 199555 ([Ruminococcus] torques group), active vs total community in BBR group) was -0.15 and the “L2FC BBRDNA vs ControlDNA” value (OTU 199555 ([Ruminococcus] torques group), total (DNA) community) was -1.72. The “L2FC BBRRNA vs ControlRNA” value (OTU 233953 (Erysipelatoclostridium), active (cDNA) community) was -1.85, the “L2FC BBRRNA vs BBRDNA” value (OTU 233953 (Erysipelatoclostridium), active vs total community in BBR group) was -0.21 and the “L2FC BBRDNA vs ControlDNA” value (OTU 233953 (Erysipelatoclostridium), total (DNA) community) was -1.14. The “L2FC BBRRNA vs ControlRNA” value (OTU 234912 (Ruminococcaceae UCG-013), active (cDNA) community) was -2.52, the “L2FC BBRRNA vs BBRDNA” value (OTU 234912 (Ruminococcaceae UCG-013), active vs total community in BBR group) was -0.46 and the “L2FC BBRDNA vs ControlDNA” value (OTU 234912 (Ruminococcaceae UCG-013), total (DNA) community) was -3.19. The “L2FC BBRRNA vs ControlRNA” value (OTU 240271 (uncultured Ruminococcaceae), active (cDNA) community) was 0.20, the “L2FC BBRRNA vs BBRDNA” value (OTU 240271 (uncultured Ruminococcaceae), active vs total community in BBR group) was 1.89 and the “L2FC BBRDNA vs ControlDNA” value (OTU 240271 (uncultured Ruminococcaceae), total (DNA) community) was 0.33. For the same compound, the “L2FC BBRRNA vs ControlRNA” value (OTU 249142 ([Ruminococcus] torques group), active (cDNA) community) was -3.17, the “L2FC BBRRNA vs BBRDNA” value (OTU 249142 ([Ruminococcus] torques group), active vs total community in BBR group) was -0.87 and the “L2FC BBRDNA vs ControlDNA” value (OTU 249142 ([Ruminococcus] torques group), total (DNA) community) was -2.54. The “L2FC BBRRNA vs ControlRNA” value (OTU 293975 (uncultured Lachnospiraceae), active (cDNA) community) was -2.01, the “L2FC BBRRNA vs BBRDNA” value (OTU 293975 (uncultured Lachnospiraceae), active vs total community in BBR group) was 0.18 and the “L2FC BBRDNA vs ControlDNA” value (OTU 293975 (uncultured Lachnospiraceae), total (DNA) community) was -1.62. The “L2FC BBRRNA vs ControlRNA” value (OTU 294545 (Ruminiclostridium), active (cDNA) community) was -0.23, the “L2FC BBRRNA vs BBRDNA” value (OTU 294545 (Ruminiclostridium), active vs total community in BBR group) was 1.73 and the “L2FC BBRDNA vs ControlDNA” value (OTU 294545 (Ruminiclostridium), total (DNA) community) was 0.21. The “L2FC BBRRNA vs ControlRNA” value (OTU 308157 (Butyricicoccus), active (cDNA) community) was 0.37, the “L2FC BBRRNA vs BBRDNA” value (OTU 308157 (Butyricicoccus), active vs total community in BBR group) was -1.55 and the “L2FC BBRDNA vs ControlDNA” value (OTU 308157 (Butyricicoccus), total (DNA) community) was 0.47. The “L2FC BBRRNA vs ControlRNA” value (OTU 315223 (Anaerotruncus), active (cDNA) community) was 0.81, the “L2FC BBRRNA vs BBRDNA” value (OTU 315223 (Anaerotruncus), active vs total community in BBR group) was 2.28 and the “L2FC BBRDNA vs ControlDNA” value (OTU 315223 (Anaerotruncus), total (DNA) community) was 0.02. The “L2FC BBRRNA vs ControlRNA” value (OTU 349246 (Ruminiclostridium 9), active (cDNA) community) was -1.09, the “L2FC BBRRNA vs BBRDNA” value (OTU 349246 (Ruminiclostridium 9), active vs total community in BBR group) was 1.04 and the “L2FC BBRDNA vs ControlDNA” value (OTU 349246 (Ruminiclostridium 9), total (DNA) community) was -0.39. The “L2FC BBRRNA vs ControlRNA” value (OTU 350256 (Intestinimonas), active (cDNA) community) was -0.58, the “L2FC BBRRNA vs BBRDNA” value (OTU 350256 (Intestinimonas), active vs total community in BBR group) was 1.65 and the “L2FC BBRDNA vs ControlDNA” value (OTU 350256 (Intestinimonas), total (DNA) community) was -0.23. For the same compound, the “L2FC BBRRNA vs ControlRNA” value (OTU 356073 ([Eubacterium] xylanophilum group), active (cDNA) community) was -1.98, the “L2FC BBRRNA vs BBRDNA” value (OTU 356073 ([Eubacterium] xylanophilum group), active vs total community in BBR group) was -1.05 and the “L2FC BBRDNA vs ControlDNA” value (OTU 356073 ([Eubacterium] xylanophilum group), total (DNA) community) was -1.79. For the same compound, the “L2FC BBRRNA vs ControlRNA” value (OTU 362793 (Oscillibacter), active (cDNA) community) was 0.13, the “L2FC BBRRNA vs BBRDNA” value (OTU 362793 (Oscillibacter), active vs total community in BBR group) was 2.11 and the “L2FC BBRDNA vs ControlDNA” value (OTU 362793 (Oscillibacter), total (DNA) community) was 0.33. For the same compound, the “L2FC BBRRNA vs ControlRNA” value (OTU 364341 (Family_Ruminococcaceae), active (cDNA) community) was 0.25, the “L2FC BBRRNA vs BBRDNA” value (OTU 364341 (Family_Ruminococcaceae), active vs total community in BBR group) was 1.56 and the “L2FC BBRDNA vs ControlDNA” value (OTU 364341 (Family_Ruminococcaceae), total (DNA) community) was 0.20. The “L2FC BBRRNA vs ControlRNA” value (OTU 368615 (uncultured Lachnospiraceae), active (cDNA) community) was -0.96, the “L2FC BBRRNA vs BBRDNA” value (OTU 368615 (uncultured Lachnospiraceae), active vs total community in BBR group) was -1.57 and the “L2FC BBRDNA vs ControlDNA” value (OTU 368615 (uncultured Lachnospiraceae), total (DNA) community) was -0.96. The “L2FC BBRRNA vs ControlRNA” value (OTU 408513 (Ruminiclostridium 9), active (cDNA) community) was -3.12, the “L2FC BBRRNA vs BBRDNA” value (OTU 408513 (Ruminiclostridium 9), active vs total community in BBR group) was 1.43 and the “L2FC BBRDNA vs ControlDNA” value (OTU 408513 (Ruminiclostridium 9), total (DNA) community) was -2.29. The “L2FC BBRRNA vs ControlRNA” value (OTU 443620 (uncultured Ruminococcaceae), active (cDNA) community) was -0.74, the “L2FC BBRRNA vs BBRDNA” value (OTU 443620 (uncultured Ruminococcaceae), active vs total community in BBR group) was 0.61 and the “L2FC BBRDNA vs ControlDNA” value (OTU 443620 (uncultured Ruminococcaceae), total (DNA) community) was 0.83. For the same compound, the “L2FC BBRRNA vs ControlRNA” value (OTU 461487 (Ruminococcaceae UCG-014), active (cDNA) community) was -0.55, the “L2FC BBRRNA vs BBRDNA” value (OTU 461487 (Ruminococcaceae UCG-014), active vs total community in BBR group) was -3.30 and the “L2FC BBRDNA vs ControlDNA” value (OTU 461487 (Ruminococcaceae UCG-014), total (DNA) community) was -0.15. The “L2FC BBRRNA vs ControlRNA” value (OTU 510295 (Fournierella), active (cDNA) community) was 0.35, the “L2FC BBRRNA vs BBRDNA” value (OTU 510295 (Fournierella), active vs total community in BBR group) was -2.43 and the “L2FC BBRDNA vs ControlDNA” value (OTU 510295 (Fournierella), total (DNA) community) was 0.86. The “L2FC BBRRNA vs ControlRNA” value (OTU 519763 (Intestinimonas), active (cDNA) community) was 1.22, the “L2FC BBRRNA vs BBRDNA” value (OTU 519763 (Intestinimonas), active vs total community in BBR group) was 2.52 and the “L2FC BBRDNA vs ControlDNA” value (OTU 519763 (Intestinimonas), total (DNA) community) was 1.10.
